Inconclusive results and toxic doses are left out. Rule as the data show it: active = T/C of 150% or more; inactive = T/C below 125%.
Test system: L1210 leukemia ip in BDF1 mice, survival T/C
Experiment: NCI In Vivo Anticancer Drug Screen. Data for tumor model L1210 Leukemia (intraperitoneal) in B6D2F1 (BDF1) mice
Conditions: endpoint: mean survival time, higher = longer survival
How it was run: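 Antitumor effect is assessed in tumor-bearing animals. Survival in the compound arm is compared with a vehicle-dosed control arm and expressed as their quotient.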

[1] = dose: 100.0 mg/kg/injection, schedule: Q01DX009 (ip), vehicle: Klucel (hydroxypropylcellulose) (HPC)
[2] = dose: 100.0 mg/kg/injection, schedule: Q04DX003 (ip), vehicle: Klucel (hydroxypropylcellulose) (HPC)
[3] = dose: 200.0 mg/kg/injection, schedule: Q01DX009 (ip), vehicle: Klucel (hydroxypropylcellulose) (HPC)
[4] = dose: 200.0 mg/kg/injection, schedule: Q04DX003 (ip), vehicle: Klucel (hydroxypropylcellulose) (HPC)
[5] = dose: 400.0 mg/kg/injection, schedule: Q01DX009 (ip), vehicle: Klucel (hydroxypropylcellulose) (HPC)
[6] = dose: 400.0 mg/kg/injection, schedule: Q04DX003 (ip), vehicle: Klucel (hydroxypropylcellulose) (HPC)
[7] = dose: 12.5 mg/kg/injection, schedule: Q01DX009 (ip), vehicle: Klucel (hydroxypropylcellulose) (HPC)
[8] = dose: 25.0 mg/kg/injection, schedule: Q01DX009 (ip), vehicle: Klucel (hydroxypropylcellulose) (HPC)
[9] = dose: 50.0 mg/kg/injection, schedule: Q01DX009 (ip), vehicle: Klucel (hydroxypropylcellulose) (HPC)
[10] = dose: 100.0 mg/kg/injection, schedule: Q01DX001 (ip), vehicle: Klucel (hydroxypropylcellulose) (HPC)
[11] = dose: 200.0 mg/kg/injection, schedule: Q01DX001 (ip), vehicle: Klucel (hydroxypropylcellulose) (HPC)
[12] = dose: 100.0 mg/kg/injection, schedule: Q01DX009 (ip), vehicle: saline
[13] = dose: 100.0 mg/kg/injection, schedule: Q04DX003 (ip), vehicle: saline
[14] = dose: 200.0 mg/kg/injection, schedule: Q01DX009 (ip), vehicle: saline
[15] = dose: 200.0 mg/kg/injection, schedule: Q04DX003 (ip), vehicle: saline
[16] = dose: 100.0 mg/kg/injection, schedule: Q01DX009 (ip), vehicle: saline with Tween-80
[17] = dose: 200.0 mg/kg/injection, schedule: Q01DX009 (ip), vehicle: saline with Tween-80
[18] = dose: 50.0 mg/kg/injection, schedule: Q04DX003 (ip), vehicle: saline with Tween-80
[19] = dose: 100.0 mg/kg/injection, schedule: Q04DX003 (ip), vehicle: saline with Tween-80
[20] = dose: 200.0 mg/kg/injection, schedule: Q04DX003 (ip), vehicle: saline with Tween-80
[21] = dose: 400.0 mg/kg/injection, schedule: Q04DX003 (ip), vehicle: saline with Tween-80

Measured: T/C

CN(C)S(=O)(=O)Nc1cc(Cl)c(NS(=O)(=O)N(C)C)cc1Cl
inactive: [1] 94 % of control | [2] 91 % of control | [3] 96 % of control | [4] 93 % of control | [5] 102 % of control | [6] 98 % of control

Cc1c([N+](=O)[O-])cc(C(C)(C)C)c(OC(=O)C(C)(C)C)c1[N+](=O)[O-]
inactive: dose: 25.0 mg/kg/injection, schedule: Q04DX002 (ip), vehicle: Klucel (hydroxypropylcellulose) (HPC) 95 % of control | dose: 50.0 mg/kg/injection, schedule: Q04DX002 (ip), vehicle: Klucel (hydroxypropylcellulose) (HPC) 100 % of control | dose: 100.0 mg/kg/injection, schedule: Q04DX002 (ip), vehicle: Klucel (hydroxypropylcellulose) (HPC) 92 % of control

C=C(Br)CNC(=O)c1ccccc1
inactive: [7] 97 % of control | [8] 108 % of control | [9] 90 % of control | [10] 101 % of control | [11] 106 % of control

CC(=O)Nc1cccnc1
inactive: dose: 50.0 mg/kg/injection, schedule: Q01DX009 (ip), vehicle: saline 101 % of control | dose: 50.0 mg/kg/injection, schedule: Q04DX003 (ip), vehicle: saline 100 % of control | [12] 101 % of control | [13] 94 % of control | [14] 98 % of control | [15] 97 % of control

C1CCC2C(C1)CCC1CCCCC12 (stereo not given)
inactive: dose: 62.5 mg/kg/injection, schedule: Q01DX001 (ip), vehicle: carboxymethylcellulose (CMC) 100 % of control | dose: 125.0 mg/kg/injection, schedule: Q01DX001 (ip), vehicle: carboxymethylcellulose (CMC) 100 % of control | dose: 250.0 mg/kg/injection, schedule: Q01DX001 (ip), vehicle: carboxymethylcellulose (CMC) 96 % of control | dose: 500.0 mg/kg/injection, schedule: Q01DX001 (ip), vehicle: carboxymethylcellulose (CMC) 102 % of control

CN(CCc1ccccc1)C(N)=S
inactive: dose: 75.0 mg/kg/injection, schedule: Q01DX001 (ip), vehicle: acetone 96 % of control

COC1(OC)C(Cl)=C(Cl)C2C1C1(Cl)C(Cl)=C(Cl)C2(Cl)C1(OC)OC (stereo not given)
inactive: [16] 98 % of control | [17] 98 % of control | dose: 400.0 mg/kg/injection, schedule: Q01DX009 (ip), vehicle: saline with Tween-80 96 % of control

CCc1ccc(C)[n+](N)c1
inactive: dose: 50.0 mg/kg/injection, schedule: Q01DX001 (ip), vehicle: saline 103 % of control | dose: 100.0 mg/kg/injection, schedule: Q01DX001 (ip), vehicle: saline 109 % of control

CC(C)[O][In]([O]C(C)C)[O]C(C)C
inactive: [18] 96 % of control | [19] 99 % of control | [20] 91 % of control | [21] 96 % of control

Cc1ccc(NC(=O)c2cccc(C(=O)Nc3ccc(C)c(C)c3)c2)cc1C
inactive: [1] 94 % of control | [2] 91 % of control | [3] 104 % of control | [4] 97 % of control | [5] 94 % of control | [6] 91 % of control

NC(=O)C(C(N)=O)C1CCCCc2ccccc21 (stereo not given)
inactive: dose: 100.0 mg/kg/injection, schedule: Q01DX001 (ip), vehicle: carboxymethylcellulose (CMC) 90 % of control | dose: 200.0 mg/kg/injection, schedule: Q01DX001 (ip), vehicle: carboxymethylcellulose (CMC) 106 % of control | dose: 400.0 mg/kg/injection, schedule: Q01DX001 (ip), vehicle: carboxymethylcellulose (CMC) 88 % of control

CC(C)(C)[N+](Cc1ccccc1)(Cc1ccccc1)Cc1ccccc1
inactive: [19] 100 % of control | [20] 100 % of control | [21] 104 % of control

CCOc1cccc(Cc2c[nH]c(=S)[nH]c2=O)c1
inactive: [10] 100 % of control | [11] 105 % of control | dose: 400.0 mg/kg/injection, schedule: Q01DX001 (ip), vehicle: Klucel (hydroxypropylcellulose) (HPC) 94 % of control

O=C(/C(=C\c1ccccc1)CN1CCOCC1)c1ccc(Br)cc1
inactive: [7] 96 % of control | [8] 93 % of control | [9] 91 % of control | [19] 87 % of control | [20] 93 % of control

Cc1ccc(S(=O)(=O)N(CCC(=O)O)c2ccccc2)cc1
inactive: [16] 90 % of control | [17] 97 % of control

O=c1cc(-c2ccccc2)nc(SCc2ccccc2Cl)[nH]1
inactive: dose: 25.0 mg/kg/injection, schedule: Q01DX Z (ip), vehicle: methylcellulose (MC) 94 % of control

C1=Nc2c(ncnc2SCc2ccccc2)NN1
inactive: dose: 5.0 mg/kg/injection, schedule: Q01DX001 (ip), vehicle: other 100 % of control | dose: 10.0 mg/kg/injection, schedule: Q01DX001 (ip), vehicle: other 106 % of control | dose: 20.0 mg/kg/injection, schedule: Q01DX001 (ip), vehicle: other 100 % of control | dose: 40.0 mg/kg/injection, schedule: Q01DX001 (ip), vehicle: other 100 % of control | dose: 50.0 mg/kg/injection, schedule: Q01DX001 (ip), vehicle: other 113 % of control | dose: 80.0 mg/kg/injection, schedule: Q01DX001 (ip), vehicle: other 93 % of control | dose: 100.0 mg/kg/injection, schedule: Q01DX001 (ip), vehicle: other 88 % of control

CCOC(=O)CN(C)C#N
inactive: [12] 101 % of control | [13] 92 % of control | [14] 101 % of control | [15] 92 % of control | dose: 400.0 mg/kg/injection, schedule: Q01DX009 (ip), vehicle: saline 92 % of control | dose: 400.0 mg/kg/injection, schedule: Q04DX003 (ip), vehicle: saline 91 % of control

COc1ccc([I+]c2ccccc2)cc1
inactive: dose: 6.25 mg/kg/injection, schedule: Q04DX003 (ip), vehicle: saline 98 % of control | dose: 9.0 mg/kg/injection, schedule: Q01DX009 (ip), vehicle: saline 104 % of control | dose: 12.5 mg/kg/injection, schedule: Q04DX003 (ip), vehicle: saline 101 % of control | dose: 25.0 mg/kg/injection, schedule: Q01DX001 (ip), vehicle: saline with Tween-80 102 % of control | dose: 25.0 mg/kg/injection, schedule: Q01DX009 (ip), vehicle: saline with Tween-80 102 % of control | dose: 25.0 mg/kg/injection, schedule: Q04DX003 (ip), vehicle: saline with Tween-80 98 % of control | dose: 25.0 mg/kg/injection, schedule: Q04DX003 (ip), vehicle: saline 109 % of control | dose: 36.0 mg/kg/injection, schedule: Q04DX003 (ip), vehicle: saline 95 % of control | dose: 50.0 mg/kg/injection, schedule: Q01DX001 (ip), vehicle: saline with Tween-80 102 % of control | dose: 50.0 mg/kg/injection, schedule: Q01DX009 (ip), vehicle: saline with Tween-80 111 % of control | [18] 93 % of control | dose: 100.0 mg/kg/injection, schedule: Q01DX001 (ip), vehicle: saline with Tween-80 98 % of control | [16] 105 % of control | [19] 97 % of control

c1ccn2nnc(-c3nnn4ccccc34)c2c1
inactive: dose: 100.0 mg/kg/injection, schedule: Q04DX002 (ip), vehicle: saline with Tween-80 102 % of control | dose: 200.0 mg/kg/injection, schedule: Q04DX002 (ip), vehicle: saline with Tween-80 95 % of control | dose: 400.0 mg/kg/injection, schedule: Q04DX002 (ip), vehicle: saline with Tween-80 91 % of control

CC(C)CCNc1ncnc2nc[nH]c12
inactive: dose: 75.0 mg/kg/injection, schedule: Q01DX001 (ip), vehicle: saline 90 % of control | dose: 150.0 mg/kg/injection, schedule: Q01DX001 (ip), vehicle: saline 92 % of control

CC[C@@]1(O)C[C@H](OC2CC(N(C)C)C(O)C(C)O2)c2c(O)c3c(c(O)c2[C@H]1OC1CC(N(C)C)C(O)C(C)O1)C(=O)c1cccc(O)c1C3=O (stereo not given in full)
inactive: dose: 0.5 mg/kg/injection, schedule: Q01DX009 (ip), vehicle: saline 110 % of control
